Assay results from ChEMBL document CHEMBL3352646, “New imidazo[1,2-b]pyrazoles as anticancer agents: synthesis, biological evaluation and structure activity relationship analysis” (Eur J Med Chem, 2014).

What was measured:
[1] = tested on: A549; assay: Anticancer activity human A549 cells assessed as growth inhibition by MTT colorimetric assay; assay type: functional, cell-based
[2] = Anticancer activity human Hs683 cells assessed as growth inhibition by MTT colorimetric assay; assay type: functional, cell-based; details: Hs 683
[3] = tested on: MCF7; assay: Anticancer activity human MCF7 cells assessed as growth inhibition by MTT colorimetric assay; assay type: functional, cell-based
[4] = tested on: SK-MEL-28; assay: Anticancer activity human SK-MEL-28 cells assessed as growth inhibition by MTT colorimetric assay; assay type: functional, cell-based
[5] = Anticancer activity human U373 cells assessed as growth inhibition by MTT colorimetric assay; assay type: functional, cell-based, U-373MG ATCC; details: U373 MG
[6] = Anticancer activity mouse B16F10 cells assessed as growth inhibition by MTT colorimetric assay; assay type: functional, cell-based; details: B16-F10
[7] = tested on: NHDF; assay: Cytotoxicity against human NHDF cells by MTT colorimetric assay; assay type: cell-based
[8] = Cytotoxicity against human NHLF cells by MTT colorimetric assay; assay type: cell-based

Row | SMILES | IC50 [1] [µM] | IC50 [3] [µM] | IC50 [4] [µM] | IC50 [2] [µM] | IC50 [5] [µM] | IC50 [6] [µM] | Activity [7] | Activity [8]
1 | COc1ccc(-c2cn3nc(-c4ccccc4)c(C(=O)N4CCN(C)CC4)c3n2C)cc1 | > 100 | 88 | > 100 | > 100 | > 100 | 74 |  | 
2 | COc1ccc(-c2cn3nc(-c4ccccc4)c(C(=O)N4CCOCC4)c3n2C)cc1 | > 100 | > 100 | > 100 | > 100 | > 100 | 76 |  | 
3 | COc1ccc(-c2c(-c3ccc(OC)cc3)n3nc(-c4ccccc4)cc3n2C)cc1 | > 100 | > 100 | > 100 | > 100 | 96 |  |  | 
4 | COc1ccc(-c2c(-c3cccc(C)c3)n3nc(-c4ccccc4)cc3n2C)cc1 | 31 | 75 | 29 | 59 | 46 |  |  | 
5 | COc1ccc(-c2c(-c3ccc(C(F)(F)F)cc3)n3nc(-c4ccccc4)c(CN4CCOCC4)c3n2C)cc1 | 1.3 | 1.9 | 2.3 | 0.9 | 0.8 | 2.1 | Non-toxic | Non-toxic
6 | COc1ccc(-c2c(-c3ccc(C)cc3)n3nc(-c4ccccc4)c(CN4CCOCC4)c3n2C)cc1 | 37 | 45 | > 100 | 48 | 30 | 46 |  | 
7 | COc1ccc(-c2c(-c3ccc(C)cc3)n3nc(-c4ccccc4)c(CN4CCN(C)CC4)c3n2C)cc1 | 20 | 18 | 21 | 18 | 19 | 12 |  | 
8 | COc1ccc(-c2c(-c3ccc(C)cc3)n3nc(-c4ccccc4)c(CN4CCCCC4)c3n2C)cc1 | 51 | 72 | 39 | 37 | 33 | 25 |  | 

Further lines, with some results ahead:

Row | IC50 [1] [µM] | IC50 [3] [µM] | IC50 [4] [µM] | SMILES | IC50 [2] [µM] | IC50 [5] [µM] | IC50 [6] [µM] | Activity [7] | Activity [8]
9 | 9 | 5 | 14 | COc1ccc(-c2cn3nc(-c4ccccc4)c(CN4CCOCC4)c3n2C)cc1 | 5 | 4 | 5 |  | 
10 | 22 | 35 | 16 | COc1ccc(-c2c(-c3ccccc3C#N)n3nc(-c4ccccc4)cc3n2C)cc1 | 26 | 13 |  |  | 
11 | > 100 | > 100 | > 100 | COc1ccc(-c2c(-c3ccc(C(F)(F)F)cc3)n3nc(-c4ccccc4)cc3n2C)cc1 | > 100 | > 100 |  |  | 
12 | 20 | 20 | 19 | COc1ccc(-c2c(-c3ccc(C(F)(F)F)cc3)n3nc(-c4ccccc4)c(CN4CCN(C)CC4)c3n2C)cc1 | 21 | 24 | 23 |  | 
13 | 5 | 16 | 5 | COc1ccc(-c2c(-c3ccncc3)n3nc(-c4ccccc4)c(CN4CCOCC4)c3n2C)cc1 | 3 | 12 | 2 |  | 
14 | 37 | 59 | 28 | COc1ccc(-c2c(-c3ccc(C(F)(F)F)cc3)n(C)c3c(CN4CCOCC4)c(-c4ccccc4)nn23)cc1 | 62 | 20 | 38 |  | 
